# In paper PMC4325971, “Sex-Differences in Renal Expression of Selected Transporters and Transcription Factors in Lean and Obese Zucker Spontaneously Hypertensive Fatty Rats” (Journal of Diabetes Research, 2015):
# Tests used:
# Test in all cases: inhibition of [3H]cGMP uptake in OAT2-HEK293 cells
# Assay type in all cases: cell-based
# [1] = molecular target: T1, human OAT2 (organic anion transporter 2) (Homo sapiens, UniProt Q9Y694)
# T1 construct: gene SLC22A7; full-length human OAT2 stably transfected in HEK293 cells (PortaCellTec Biosciences)
# T1 sequence (Q9Y694 1-548): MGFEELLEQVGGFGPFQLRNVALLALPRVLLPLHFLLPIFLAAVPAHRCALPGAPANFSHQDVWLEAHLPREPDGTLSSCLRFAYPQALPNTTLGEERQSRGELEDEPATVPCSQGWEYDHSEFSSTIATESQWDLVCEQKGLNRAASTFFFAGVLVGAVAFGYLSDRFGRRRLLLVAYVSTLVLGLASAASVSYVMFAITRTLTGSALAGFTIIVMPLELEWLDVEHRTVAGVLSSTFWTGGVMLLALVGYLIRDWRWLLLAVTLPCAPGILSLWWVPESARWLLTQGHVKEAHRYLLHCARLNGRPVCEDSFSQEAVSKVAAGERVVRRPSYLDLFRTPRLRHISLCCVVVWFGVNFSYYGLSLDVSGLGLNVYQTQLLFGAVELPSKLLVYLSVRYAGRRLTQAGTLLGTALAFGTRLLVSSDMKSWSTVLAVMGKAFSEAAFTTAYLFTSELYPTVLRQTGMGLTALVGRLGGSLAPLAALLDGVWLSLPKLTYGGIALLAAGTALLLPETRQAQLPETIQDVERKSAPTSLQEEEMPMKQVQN
# [2] = molecular target: T1, human OAT2 (organic anion transporter 2); settings: read-out: % inhibition at 500 μM
# [3] = molecular target: T1, human OAT2 (organic anion transporter 2); settings: 500 μM inhibitor, 10 μM cGMP, 5 min, 37°C, pH 7.4
Compound,% inhibition at 500 μM [3],also measured
CCCCNc1cc(C(=O)O)cc(S(N)(=O)=O)c1Oc1ccccc1 [bumetanide],–,IC50 [1]: 130 ± 21.8 µM
N[C@@H](CC(=O)N1CCn2c(nnc2C(F)(F)F)C1)Cc1cc(F)c(F)cc1F [sitagliptin],–,inhibition at 500 µM [2]: ~25%
COc1ccc2c(c1)c(CC(=O)O)c(C)n2C(=O)c1ccc(Cl)cc1 [indomethacin],OAT2 transport function was abolished by indomethacin,–
COc1cc(CC(=O)O)ccc1O [homovanillic acid],significantly decreased in the presence of the dopamine metabolite homovanillate,–
CCOC(=O)[C@H](CCc1ccccc1)N[C@@H](C)C(=O)N1CCC[C@H]1C(=O)O [enalapril],weak inhibition of OAT2-mediated cGMP uptake by high concentrations of sitagliptin and enalapril,–
